Reference: patent publication US20090264401A1, “SUBSTITUTED PYRIMIDIN-5-CARBOXAMIDES 281” (AstraZeneca AB, priority 2008, published 2009)

Molecular target: T1, human 11βHSD1 enzyme (Homo sapiens, UniProt P28845)
T1 construct: baculovirus expressed N terminal 6-His tagged full length human 11βHSD1 enzyme; 6-His (N); made in house
Assay: 11βHSD1 cortisone to cortisol conversion, competitive HTRF assay
Format: biochemical
Conditions: for inhibition at 30 µM: human 11-βHSD, test concentration of 30 μM of compound; for IC50: recombinant N terminal 6-His tagged full length human 11βHSD1, cortisone 160 nM, 25 minutes at 37° C.
Protocol: The evaluation of compounds described herein was carried out using a baculovirus expressed N terminal 6-His tagged full length human 11βHSD1 enzyme(*1). The enzyme was purified from a detergent solubilised cell lysate, using a copper chelate column. Inhibitors of 11βHSD1 reduce the conversion of cortisone to cortisol, which is identified by an increase in signal, in the above assay.
Compounds to be tested were dissolved in dimethyl sulphoxide (DMSO) to 10 mM and diluted further in assay buffer containing 1% DMSO to 10 fold the final assay concentration. Diluted compounds were then plated into black 384 well plates (Matrix, Hudson N.H., USA).
Fluorescence at 665 nm and 620 nm was measured and the 665 nm:620 nm ratio calculated using an Envision plate reader.

T1 sequence (P28845 whole entry): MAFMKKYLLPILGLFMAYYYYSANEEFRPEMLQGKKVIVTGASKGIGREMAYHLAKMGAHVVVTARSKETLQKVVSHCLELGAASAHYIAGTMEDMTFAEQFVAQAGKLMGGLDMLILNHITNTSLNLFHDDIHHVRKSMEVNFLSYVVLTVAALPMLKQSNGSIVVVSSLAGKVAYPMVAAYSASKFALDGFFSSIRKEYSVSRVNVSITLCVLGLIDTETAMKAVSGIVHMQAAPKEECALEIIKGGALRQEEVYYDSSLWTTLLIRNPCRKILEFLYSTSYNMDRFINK

Row | SMILES | inhibition at 30 µM [%] | IC50 [nM]
1 | O=C(N[C@H]1C2CC3CC1C[C@@](O)(C3)C2)c1cncnc1C1CC1 [Example 3, 4-cyclopropyl-N-[(2r,5s)-5-hydroxyadamantan-2-yl]pyrimidine-5-carboxamide] | 106 | 370
2 | CC(C)(C)c1ncncc1C(=O)N[C@H]1C2CC3CC1C[C@@](O)(C3)C2 [Example 7] | 88.3 | –
3 | CSc1ncc(C(=O)N[C@H]2C3CC4CC2C[C@@](O)(C4)C3)c(C2CC2)n1 [Example 11, 4-Cyclopropyl-N-[(2r,5s)-5-hydroxyadamantan-2-yl]-2-methylsulfanyl-pyrimidine-5-carboxamide] | 97.5 | 70
4 | Cc1ncc(C(=O)NC2C3CC4CC(C3)CC2C4)c(C2CC2)n1 (centres unmarked) [Example 12, N-(2-adamantyl)-4-cyclopropyl-2-methyl-pyrimidine-5-carboxamide] | 97.3 | 45
5 | O=C(NC1C2CC3CC(C2)CC1C3)c1cnc(N2CCOCC2)nc1C1CC1 (centres unmarked) [Example 13, N-(2-adamantyl)-4-cyclopropyl-2-morpholino-pyrimidine-5-carboxamide] | 112 | 14
6 | CC(C)(C)c1nc(N2CCOCC2)ncc1C(=O)NC1C2CC3CC(C2)CC1C3 (centres unmarked) [Example 14, N-(2-Adamantyl)-4-tert-butyl-2-morpholin-4-ylpyrimidine-5-carboxamide] | 108 | –
7 | Cc1nc(N2CCOCC2)ncc1C(=O)NC1C2CC3CC(C2)CC1C3 (centres unmarked) [Example 15, N-(2-adamantyl)-4-methyl-2-morpholin-4-ylpyrimidine-5-carboxamide] | 95.4 | –
8 | CCCSc1ncc(C(=O)N[C@H]2C3CC4CC2C[C@@](O)(C4)C3)c(SCCC)n1 [Example 16, N-[(2r,5s)-5-hydroxyadamantan-2-yl]-2,4-bis(propylsulfanyl)pyrimidine-5-carboxamide] | 95.8 | 2
9 | CCCSc1ncc(C(=O)N[C@H]2C3CC4CC2C[C@@](O)(C4)C3)c(N(C)C)n1 [Example 18, 4-Dimethylamino-N-[(2r,5s)-5-hydroxyadamantan-2-yl]-2-propylsulfanylpyrimidine-5-carboxamide] | 98.5 | 3
10 | CCCSc1nc(N2CCC[C@@H](CC(=O)OC)C2)ncc1C(=O)NC1CCCCC1 [Example 19, (S)-Methyl 2-(1-(5-(cyclohexylcarbamoyl)-4-(propylthio)pyrimidin-2-yl)piperidin-3-yl)acetate] | 100 | 14
11 | CCCSc1nc(N2CCC[C@@H](CC(=O)O)C2)ncc1C(=O)NC1CCCCC1 [Example 20, {(3S)-1-[5-(Cyclohexylcarbamoyl)-4-(propylthio)pyrimidin-2-yl]piperidin-3-yl}acetic acid] | 97.6 | 2
12 | CCCSc1ncc(C(=O)N[C@H]2C3CC4CC2C[C@@](O)(C4)C3)c(NC)n1 [Example 22, N-[(2r,5s)-5-hydroxyadamantan-2-yl]-4-methylamino-2-propylsulfanylpyrimidine-5-carboxamide] | 89.5 | –
13 | CCCSc1nc(N2C[C@@H](C)O[C@@H](C)C2)ncc1C(=O)N[C@H]1C2CC3CC1C[C@@](O)(C3)C2 [Example 23, 2-[(2s,6r)-2,6-Dimethylmorpholin-4-yl]-N-[(2r,5s)-5-hydroxyadamantan-2-yl]-4-propylsulfanylpyrimidine-5-carboxamide] | 97.4 | –
14 | CCCSc1ncc(C(=O)N[C@H]2C3CC4CC2C[C@@](O)(C4)C3)c(N2C[C@@H](C)O[C@@H](C)C2)n1 [Example 24, 4-[(2S,6R)-2,6-Dimethylmorpholin-4-yl]-N-[(2r,5s)-5-hydroxyadamantan-2-yl]-2-propylsulfanylpyrimidine-5-carboxamide] | 68 | –
15 | CCCSc1ncc(C(=O)N[C@H]2C3CC4CC2C[C@@](O)(C4)C3)c(N2CCN(C(C)=O)CC2)n1 [Example 25, 4-(4-Acetylpiperazin-1-yl)-N-[(2r,5 s)-5-hydroxyadamantan-2-yl]-2-propylsulfanylpyrimidine-5-carboxamide] | 101 | –
